Test results reported in patent US20110295343A1, “NEAR-INFRARED ELECTROMAGNETIC MODIFICATION OF CELLULAR STEADY-STATE MEMBRANE POTENTIALS” (priority 2008, published 2011).
“And” between values parts separate entries of the source, which are not always exact repeats. Equal entries are not always repeated.

Tests used:
[1] = system: MRSA in the nares; test: Nasal colonization human study Part One, quantitative swab cultures, MRSA; format: in vivo, S. aureus; settings: for MRSA Average: laser w/ drug arm, one line per patient
Description: (§1) This investigational protocol was an open-label study of subjects who are colonized with MRSA in the nares (nostril). The study was done in two parts.
(§2) In this human study, three arms were produced. […] This was done on day 1 and again on day three; and Arm #3: ⅓ of the subjects were treated with the laser and then a topical antibiotic three times a day for five days. Prior to enrollment in this study, prospective subjects met all of the following criteria: age≧18 years and ≦70 years of age; previous positive MRSA culture; negative urine pregnancy test or post-menopausal for one year; willing to comply with study requirements, including return visits and self-application of topical antibiotics; and willing to provide informed consent to participate. Prospective subjects were excluded from this study if any of the following criteria were met: pregnancy; patients who are severely immunocompromised (such as may occur in AIDS, renal transplant regimens, immunosuppressed states consequent to malignancy or agents used in rendering oncologic care, or who suffer from end stage renal disease); diabetic patients; allergy to antimicrobials being used in the study (group 3).
(§3) All participants underwent an initial quantitative assessment for nasal carriage of S. aureus, during their first visit. Each participant had the anterior nares (each nostril) sampled for culture with a circular movement (three rotations on each side) of a sterile wood applicator plain Rayon® tipped swab in each nostril and placed in a labled tube. 2 ml of room temp phosphate buffered saline was placed in the tube after the removal of the swab (to completely cover the swab in the tube). Each swab was then placed back in the tube and the tube was then vortexed for 15 seconds to disperse isolates of MRSA and/or MSSA into the PBS solution. Aliquots of PBS from the tube were plated in the following manner: 100 μl from each tube was lawn plated in triplicate (3×) on selective Chromogenic MRSA And MSSA agar. Plates were placed in incubator within 30 minutes of the plating procedure, and colonies were counted manually, and recorded 18 hrs after plating.
(§4) On day one of the study, all subjects underwent this exact procedure in arms 1 and 2 of the study two minutes before the laser procedure. They again were sampled in the same manner 2 minutes after the laser procedure. In the third arm of the study, they were swabbed two minutes before the procedure and the first antibiotic administration was completed after the laser therapy. The post/laser swab sample was taken for this arm 20 min later.
(§5) On day three of the study, all subjects from arms one two and three underwent the exact same procedures as day 1 of the study.
(§6) On day five all subjects from all arms underwent just one swabbing per nostril with the exact same sampling procedure one time.
(§7) Application of H202: 3% OTC hydrogen peroxide was applied to a cotton pledget for application to the subject prior to irradiation. This was inserted in the nose for 120 seconds and then removed. The subjects were then given doses of phototherapeutic near infrared radiation as described. Application of generic topical Antimicrobial: The subjects were first given doses of phototherapeutic near infrared radiation as described. […] The swab was inserted approximately 1 cm in to the anterior nares and rotated 360 degrees several times and removed. Patients were instructed to perform the exact application procedure 3 times a day for the remaining 5 days.
(§8) The NOVEON™ laser was used for two (2) six-minute treatments in each nostril on day (1) and day (3) of the study.
(§9) The laser was calibrated before the first treatment of the day. Intermittent temperature testing of the treatment site was performed on each subject using a noncontact infrared thermometer (Raytek Minitemp), 30-60 second intervals.

[2] = system: MRSA; test: CFU counts of MRSA plated on agar with antibiotic after sub-lethal NIMELS laser (Examples IX-XII); format: cell-based, Staphylococcus aureus; settings: for MRSA colony count, EXPERIMENTAL: sub-lethal NIMELS laser
Text: The following parameters illustrate the general bacterial methods according to the invention as applied to MRSA for the in vitro Experiments V and VIII-XII.
The null hypothesis is μ1−μ2=0 and μ1−μ3=0 where:
a) μ1 is sub-lethal dosimetry from the NIMEL laser system on MRSA as a control and;
The null hypothesis is μ1−μ2=0 and μ1−μ3=0 where: • a) μ1 is sub-lethal dosimetry from the NIMEL laser system on MRSA as a control and; • b)μ2 is the same sub-lethal dosimetry from the NIMEL laser system on MRSA with the addition of tetracycline at resistant MIC just below effectiveness level and; • c) μ3 is the same sub-lethal dosimetry from the NIMEL laser system on MRSA with the addition of rifampin at resistant MIC just below effectiveness level.
The null hypothesis is μ1−μ2=0 and μ1−μ3=0 where: a) μ1 is sub-lethal dosimetry from the NIMEL laser system on MRSA as a control and; b)μ2 is the same sub-lethal dosimetry from the NIMEL laser system on MRSA with the addition of methicillin at resistant MIC just below effectiveness level and; […]

[3] = system: MRSA (ATCC BAA-43); test: MRSA/antimicrobial potentiation, CFU on TSB agar with and without antibiotic after laser (Example XXII, Experiments 1-4); format: cell-based, Staphylococcus aureus subsp. aureus; settings: for CFU/ml / CFU (single plate count) / AVG (CFU): Drug yes; for CFU (single plate count): agar with 30 μg/ml methicillin, 0.5 μg/ml penicillin G or 4 μg/ml erythromycin, 24 hrs 37° C., plates 1-5; for AVG (CFU): mean of 5 plates; for Drug Effect: CFU with drug relative to without drug; for Laser Effect (+Drug): Exp vs Cont, both with drug
Description: Four separate experiments have been performed.
Eight different laser dosages were used to treat a saline-suspension of logarithmically growing MRSA, labeled A1 to H1.
The treated and a control untreated suspension were diluted and plated in triplicate on trypic soy agar with or without 30 μg/ml methicillin After 24 hrs of growth at 37° C. colonies were counted.
CFU (colony forming units) were compared between the plates with and without methicillin for both control (untreated) and treated MRSA.
The treated and a control untreated suspension were diluted and plated in triplicate on trypic soy agar with or without 30 μg/mlmethicillin.
After 24 hrs of growth at 37° C. colonies were counted.
The treated and a control untreated suspension were diluted and plated in pentuplicate on trypic soy agar with or without 30 μg/ml methicillin.

[4] = system: MSSA in the nares; test: Nasal colonization human study Part One, quantitative swab cultures, MSSA; format: in vivo, S. aureus; settings: laser w/ drug arm, one line per patient
Description: as §1, §2, §3, §4, §5, §6, §7, §8, §9

[5] = Cont (no laser), groups A4/C4/E4
[6] = Cont (no laser), groups B4/D4/F4
[7] = Exp (laser 870+930 at 5 W 14 min, then 930 at 6 W 9 min), groups B4/D4/F4
[8] = Exp (laser 870+930 at 5.5 W 12 min, then 930 at 8 W 6 min), groups A4/C4/E4
[9] = Initial Analysis, Post-treatment swab, left nostril
[10] = Initial Analysis, Post-treatment swab, right nostril
[11] = Initial Analysis, Pre swab (baseline), left nostril, mean of triplicate plates
[12] = Initial Analysis, Pre swab (baseline), right nostril
[13] = Second Analysis, Post-treatment swab, left nostril
[14] = Second Analysis, Post-treatment swab, right nostril
[15] = Second Analysis, Pre swab, left nostril
[16] = Second Analysis, Pre swab, right nostril
[17] = Third Analysis, Swab, left nostril
[18] = Third Analysis, Swab, right nostril

Compound: OO [H2O2, hydrogen peroxide]
- outcome of Laser plus H2O2 arm on nasal colonization ([1]; humans, topical 3% H2O2 120 seconds, then laser, day 1 and day 3): some transient benefit in some of the patients, but no obvious long-term efficacy

Compound: CC1(C)S[C@@H]2[C@H](NC(=O)Cc3ccccc3)C(=O)N2[C@H]1C(=O)O [Penicillin, penicillin G]
- effect of sub-lethal NIMELS irradiation on antibiotic action against MRSA colonies (words) ([2]; antibiotic at resistant MIC just below effectiveness level): successful reversal of MRSA resistance
- CFU/ml [3, 5]: 3.25E+08 CFU/ml
- CFU (single plate count) [3, 5]: 106 CFU and 99 CFU and 102 CFU and 113 CFU and 122 CFU
- AVG (CFU) [3, 5]: 108.4 CFU
- CFU/ml [3, 6]: 3.98E+08 CFU/ml
- CFU (single plate count) [3, 6]: 101 CFU and 111 CFU and 138 CFU and 132 CFU and 182 CFU
- AVG (CFU) [3, 6]: 132.8 CFU
- Drug Effect [3, 5]: 0.75
- Drug Effect [3, 6]: 1.07
- CFU/ml [3, 7]: 7.14E+07 CFU/ml
- AVG (CFU) [3, 7]: 23.8 CFU
- Drug Effect [3, 7]: 0.31
- CFU/ml [3, 8]: 9.12E+07 CFU/ml
- AVG (CFU) [3, 8]: 30.4 CFU
- Drug Effect [3, 8]: 0.34
- Laser Effect (+Drug) ([3]; laser 870+930 at 5 W 14 min, then 930 at 6 W 9 min, groups B4/D4/F4): 0.18
- Laser Effect (+Drug) ([3]; laser 870+930 at 5.5 W 12 min, then 930 at 8 W 6 min, groups A4/C4/E4): 0.28
- synergistic effect of NIMELS with antibiotic in growth inhibition of MRSA colonies ([3]; FIG. 17): being potentiated by sub-lethal NIMELS dosimetry

Compound: OO [Peroxide]
- MRSA Average [1, 9]: 0 CFU (2×) and 22 CFU and 1 CFU
- MRSA Average [1, 10]: 0 CFU (2×) and 455 CFU and 2752 CFU
- MRSA Average [1, 11]: 0 CFU (2×) and 63 CFU and 4 CFU
- MRSA Average [1, 12]: 0 CFU (2×) and 30 CFU and 4032 CFU
- MRSA Average [1, 13]: 0 CFU (3×) and 12 CFU
- MRSA Average [1, 14]: 0 CFU (2×) and 114 CFU and 3347 CFU
- MRSA Average [1, 15]: 0 CFU (2×) and 180 CFU and 17 CFU
- MRSA Average [1, 16]: 0 CFU (2×) and 90 CFU and 3099 CFU
- MRSA Average [1, 17]: 0 CFU (3×) and 827 CFU
- MRSA Average [1, 18]: 0 CFU (2×) and 563 CFU and 3648 CFU
- s. aureus Average [4, 9]: 0 CFU (2×) and 20 CFU and 1 CFU
- s. aureus Average [4, 10]: 0 CFU and 506 CFU and 146 CFU and 3272 CFU
- s. aureus Average [4, 11]: 1 CFU and 53 CFU and 17 CFU and 124 CFU
- s. aureus Average [4, 12]: 0 CFU and 29 CFU and 285 CFU and 3996 CFU
- s. aureus Average [4, 13]: 0 CFU (3×) and 10 CFU
- s. aureus Average [4, 14]: 0 CFU and 126 CFU and 5 CFU and 3589 CFU
- s. aureus Average [4, 15]: 1 CFU and 206 CFU and 4 CFU and 12 CFU
- s. aureus Average [4, 16]: 1 CFU and 94 CFU and 257 CFU and 4373 CFU
- s. aureus Average [4, 17]: 1 CFU and 868 CFU and 28 CFU and 0 CFU
- s. aureus Average [4, 18]: 1 CFU and 586 CFU and 52 CFU and 3493 CFU

Compound: CO[C@H]1/C=C/O[C@@]2(C)Oc3c(C)c(O)c4c(O)c(c(/C=N/N5CCN(C)CC5)c(O)c4c3C2=O)NC(=O)/C(C)=C\C=C\[C@H](C)[C@H](O)[C@@H](C)[C@@H](O)[C@@H](C)[C@H](OC(C)=O)[C@@H]1C [Rifampin]
- MRSA colony count, CONTROL ([2]; no laser, agar with rifampin 90 ug/ml, samples E1, E2, E3, 5 replicates each): 183 and 210 (3×) and 166 and 228 and 188 and 274 and 180 and 240 and 288 and 280 and 290 and 300
- MRSA colony count, EXPERIMENTAL ([2]; agar with rifampin 90 ug/ml, samples E1, E2, E3, 5 replicates each): 280 (2×) and 272 and 320 and 330 and 284 (2×) and 270 and 225 and 200 (2×) and 210 and 378

Compound: CN(C)[C@@H]1C(O)=C(C(N)=O)C(=O)[C@@]2(O)C(O)=C3C(=O)c4c(O)cccc4[C@@](C)(O)[C@H]3C[C@@H]12 [Tetracycline]
- MRSA colony count, CONTROL ([2]; no laser, agar with tetracyc. 4 ug/ml, samples E1, E2, E3, 5 replicates each): 240 and 256 and 268 and 310 (2×) and 255 and 280 and 283 and 263 and 260 and 368 and 380 and 375 and 390
- MRSA colony count, EXPERIMENTAL ([2]; agar with tetracyc. 4 ug/ml, samples E1, E2, E3, 5 replicates each): 42 (2×) and 18 (2×) and 28 and 27 and 16 and 72 and 67 and 45 and 47 and 74 and 56 and 46 and 48

Compound: COc1cc(Cc2cnc(N)nc2N)cc(OC)c1OC [Trimethoprim]
- MRSA colony count, CONTROL (no laser) ([2]; no laser, agar with trimeth 2 ug/ml, replicates B-4 1 to 5): 213 and 198 and 240 and 220 and 145
- MRSA colony count, EXPERIMENTAL ([2]; agar with trimeth 2 ug/ml, replicates B-4 1 to 5): 100 and 110 and 125 and 138 and 115
